Literature values, collected in patent publication US6629995B1, “Camptothecin conjugates” (priority 2000, dated 2003).

Legend:
human tumor xenografts = details: nude mice
[1] = administered intravenously
[2] = tested on: nontumorigenic and tumorigenic human cells
[3] = tested on: human colon cancer xenografts; details: mouse, in vivo
[4] = tested on: beta cells of the pancreas; details: in vivo

In the case of `CC[C@@]1(O)C(=O)OCc2c1cc1n(c2=O)Cc2cc3c([N+](=O)[O-])cccc3nc2-1` [Example 9NC, 9-nitrocamptothecin], the “activity against human tumor xenograft models” value (human tumor xenografts) is given as “high activity”.

In the case of `CC[C@@](O)(C(=O)[O-])c1cc2n(c(=O)c1CO)Cc1cc3ccccc3nc1-2.[Na+]` [CPT Na+, camptothecin sodium salt], the “potency in clinical trials” value [1] is listed as “low potency” and the “toxicity in clinical trials” value [1] is listed as “high toxicity”.

For `CC[C@@]1(O)C(=O)OCc2c1cc1n(c2=O)Cc2cc3ccccc3nc2-1` [CPT, 20(S)-camptothecin], the solubility in water is given as “insoluble in water”, the “effect on nontumorigenic cells” value ([2]; nontumorigenic human cells in vitro) is given as “cytostatic” and the “effect on tumorigenic cells” value ([2]; tumorigenic human cells in vitro) is given as “cytotoxic”.

For `CC[C@@]1(O)C(=O)OCc2c1cc1n(c2=O)Cc2cc3c(N)cccc3nc2-1` [Example 9AC, 9-Amino-20(S)-Camptothecin], the “anticancer activity against human colon cancer xenografts” value [3] is listed as “high anticancer activity”.

For `CN(N=O)C(=O)N[C@@H]1[C@@H](O)[C@H](O)[C@@H](CO)O[C@@H]1O` [Streptozoticin], the accumulation in tissue [4] is given as “preferentially accumulate in the beta cells of the pancreas”.

For `CC[C@@]1(O)C(=O)OCc2c1cc1n(c2=O)Cc2cc3cc4c(cc3nc2-1)OCO4` [10,11 MD, 10,11-Methylendioxy-20(S)-Camptothecin], the “anticancer activity against human colon cancer xenografts” value [3] is given as “high anticancer activity”.
